Experimental data reported in patent US20260184701A1, “FIVE-MEMBERED HETEROARYL COMPOUND AND AGRICULTURAL AND HORTICULTURAL FUNGICIDE” (Nippon Soda Co., Ltd., priority 2022, published 2026).

Key:
[1] = test system: Botrytis cinerea; test: Control test of cucumber gray mold (sprayed young cucumber seedlings, inoculated); settings: in Cucumis sativus, 96 h, read-out: control value
Experimental: Water was added to the emulsion to obtain a drug liquid in which the concentration of the five-membered heteroaryl compound according to the present invention reached a predetermined concentration. Then, the drug liquid was sprayed onto young cucumber seedlings cultivated in a nursery pot (variety “Jihai”-based, cotyledon stage), and then air-dried. […] They were left still in a moist room at 20° C.

[2] = test system: Colletotrichum acutatum; test: Fungicidal effect test against fungus causing apple anthracnose (spore suspension, turbidity); assay type: cell-based; settings: 96 h, 25 ppm by volume, Czapek medium, 25° C., four days
[3] = test system: Glomerella cingulata; test: Fungicidal effect test against fungi causing grape ripe rot disease (spore suspension, turbidity); assay type: cell-based; settings: Colletotrichum gloeosporioides, 72 h; 25 ppm by volume; Vogel medium; 25° C., three days

Compound | pest or weed control at 25 ppm [1] [%] | inhibition of growth at 25 ppm [2] [%] | inhibition of growth at 25 ppm [3] [%] | pest or weed control at 125 ppm [1] [%]
C=C/C(=C\C=C\C)CCN/C(=N\OC)c1c(Oc2cccc(Br)c2)cnn1C [a-2] | ≥ 75 | ≥ 75 | ≥ 75 | –
Cc1ccc(CC2CON=C(c3c(Oc4cccc(C5CC5)c4)cnn3C)N2)c(C)c1 (stereo not drawn) [a-3] | – | ≥ 75 | ≥ 75 | ≥ 75
C=C(C)/C(=C\C=C\C)CC(CON)NCc1c(Oc2ccc(Br)cc2)cnn1C (stereo not drawn) [a-5] | – | ≥ 75 | ≥ 75 | –
CO/N=C(\NCCC1CC=C(C)C=C1C)c1c(Oc2ccc(C3CC3)cc2)cnn1C (stereo not drawn) [a-6] | – | – | ≥ 75 | –
Cc1ccc(Oc2cnn(C)c2C2=NOCC(Cc3ccc(C)cc3C)N2)cc1 (stereo not drawn) [a-7] | – | ≥ 75 | ≥ 75 | –
CO/N=C(\NCCc1ccc(C)cc1)c1c(Oc2cccc(I)c2)cnn1C [a-8] | – | ≥ 75 | ≥ 75 | ≥ 75
CCc1cccc(Oc2cnn(C)c2C2=NOCC(Cc3ccc(C)cc3C)N2)c1 (stereo not drawn) [a-10, 5-(2,4-dimethylbenzyl)-3-(4-(3-ethylphenoxy)-1-methyl-1H-pyrazol-5-yl)-5,6-dihydro-4H-1,2,4-oxadiazine] | – | ≥ 75 | ≥ 75 | –
Cc1cccc(Oc2nnn(C)c2C2=NOCC(Cc3ccc(C)cc3C)N2)c1 (stereo not drawn) [a-12] | ≥ 75 | ≥ 75 | ≥ 75 | ≥ 75
CO/N=C(\NCCc1ccc(C)cc1)c1c(Oc2ccc(Cl)c(C)c2)nnn1C [a-13] | – | ≥ 75 | ≥ 75 | –
CO/N=C(\NCCc1ccc(C)cc1C)c1c(Oc2cccc(C(F)(F)F)c2F)nnn1C [a-16] | – | ≥ 75 | ≥ 75 | –
C/C=C(C)\C=C(\C)CCCN/C(=N\OC)c1c(Oc2cccc(Cl)c2)cnn1C [a-17] | – | ≥ 75 | ≥ 75 | –
Cc1cccc(Oc2c(Cl)nn(C)c2C2NOCC(Cc3ccc(C)cc3C)N2)c1 (stereo not drawn) [a-18] | – | ≥ 75 | ≥ 75 | –
C/C=C(C)\C=C(\C)CCC1CON=C(c2c(Oc3cccc(Br)c3F)cnn2C)N1 (stereo not drawn) [a-19] | – | ≥ 75 | ≥ 75 | –
CCn1ncc(Oc2cccc(C)c2)c1CNC(CON)Cc1ccc(C)cc1C (stereo not drawn) [a-20] | – | ≥ 75 | ≥ 75 | –
C/C=C(Cl)\C=C(\Cl)CCC1CON=C(c2c(Oc3cccc(C)c3)cnn2CC)N1 (stereo not drawn) [a-21] | – | ≥ 75 | ≥ 75 | –
C=C/C(=C\C=C\Br)CCN/C(=N\OC)c1c(Oc2cccc(C)c2)cnn1CC [a-22] | – | ≥ 75 | ≥ 75 | –
CO/N=C(\NCCc1ccc(Br)cc1)c1c(Oc2cccc(C)c2)cnn1C [a-23] | – | ≥ 75 | ≥ 75 | –
Cc1ccc(CC2CON=C(c3c(Oc4cccc(Br)c4)cnn3CC(F)(F)F)N2)cc1 (stereo not drawn) [a-24] | – | ≥ 75 | ≥ 75 | –
Cn1ncc(Oc2cccc(C(F)(F)F)c2)c1C1=NOCC(c2cccs2)N1 (stereo not drawn) [a-25, 3-(1-methyl-4-(3-(trifluoromethyl)phenoxy)-1H-pyrazol-5-yl)-5-(thiophen-2-yl)-5,6-dihydro-4H-1,2,4-oxadiazine] | – | – | ≥ 75 | –
Cc1ccc(C2CON=C(c3c(Oc4cccc(C(F)(F)F)c4)cnn3C)N2)s1 (stereo not drawn) [a-26, 3-(1-methyl-4-(3-(trifluoromethyl)phenoxy)-1H-pyrazol-5-yl)-5-(5-methylthiophen-2-yl)-5,6-dihydro-4H-1,2,4-oxadiazine] | – | ≥ 75 | ≥ 75 | –
C=C/C(=C\C=C\C)CC1CON=C(c2c(Oc3cccc(C)c3)cnn2C(C)C)N1 (stereo not drawn) [a-27] | ≥ 75 | ≥ 75 | ≥ 75 | ≥ 75
Cc1cc(C2CON=C(c3c(Oc4cccc(C(F)(F)F)c4)cnn3C)N2)c(C)s1 (stereo not drawn) [a-28] | – | ≥ 75 | ≥ 75 | –
Cc1ccc(C(CON)NCc2c(Oc3cccc(C(F)(F)F)c3)cnn2C)o1 (stereo not drawn) [a-29] | – | – | ≥ 75 | –
CCn1nc(Cl)c(Oc2cccc(C(F)(F)F)c2)c1C1=NOCC(Cc2ccc(C)cc2C)N1 (stereo not drawn) [a-30, 3-(3-chloro-1-ethyl-4-(3-(trifluoromethyl)phenoxy)-1H-pyrazol-5-yl)-5-(2,4-dimethylbenzyl)-5,6-dihydro-4H-1,2,4-oxadiazine] | ≥ 75 | ≥ 75 | ≥ 75 | ≥ 75
C=C/C(=C\C=C\C)CC1CON=C(c2c(Oc3cccc(C)c3)c(C)nn2C)N1 (stereo not drawn) [a-31] | – | ≥ 75 | ≥ 75 | –
CO/N=C(\NCCc1ccc(C)cc1C)c1c(Oc2cccc(C#N)c2)cnn1C [a-33] | – | ≥ 75 | ≥ 75 | –
C/C=C(C#N)\C=C(\C)CCC1CON=C(c2c(Oc3cccc(C)c3)cnn2C)N1 (stereo not drawn) [a-34] | – | ≥ 75 | ≥ 75 | ≥ 75
C/C=C/c1ccc(CC2CON=C(c3c(Oc4cccc(C)c4)cnn3C)N2)c(C)c1 (stereo not drawn) [a-35] | – | ≥ 75 | ≥ 75 | –
